Laboratory results reported in ChEMBL document CHEMBL1158973, “The crystal structure and cytotoxicity of goniodiol-7-monoacetate from Goniothalamus amuyon” (1991).
Converted amounts (≈) assume the structure as drawn. The source made the active and inactive calls. The calls are words filed in the database; no cut-off is given here.

Experiments:
HCT-8 = assay: Cytotoxicity against human HCT8 cells at 4 ug/ml; format: functional, cell-based
A549 [1] = assay: Cytotoxicity against human A549 cells at 4 ug/ml; format: functional, cell-based
[2] = Cytotoxicity against human RPMI cells; format: functional; settings: read-out: ED50 (the source's name)
P388 = assay: Cytotoxicity against mouse P388 cells; format: functional; settings: read-out: ED50 (the source's name)
KB = assay: Cytotoxicity against human KB cells; format: functional; settings: read-out: ED50 (the source's name)
TE-671 = assay: Cytotoxicity against human TE671 cells; format: functional; settings: read-out: ED50 (the source's name)
A549 [3] = assay: Cytotoxicity against human A549 cells; format: functional; settings: read-out: ED50 (the source's name)

Row | Compound | Activity (HCT-8) | Activity (A549 [1]) | EC50 [2] [µg/mL] | EC50 (P388) [µg/mL] | EC50 (KB) [µg/mL] | EC50 (TE-671) [µg/mL] | EC50 (A549 [3]) [µg/mL]
1 | CC(=O)O[C@H]([C@H](O)c1ccccc1)[C@H]1CC=CC(=O)O1 | inactive | inactive | < 0.1 | < 0.1 | < 0.1 | < 0.1 | 
2 | O=C1C=CC[C@H]([C@H](O)[C@H](O)c2ccccc2)O1 [GONIODIOL] |  |  |  |  |  |  | 0.12 (≈ 0.512 µM)
